# Assays:
# Assay type in all cases: in vivo
# Galium aparine = experiment: Pre-emergence test, weed control; conditions: 3 weeks after treatment, rating 0-100 (100=death), Table 3
# Protocol: (§1) The pre-emergence tests involve spraying a liquid formulation of the compound onto the soil in which the seeds of the plant species mentioned above has recently been sown.
# (§2) The soil used in the tests is a prepared horticultural loam. The formulations used in the tests are prepared from solutions of the test compounds in acetone containing 0.4% by weight of an alkylphenol/ethylene oxide condensate available under the trade mark TRITON X-155.
# (§3) In these tests untreated sown soil is used as control. The herbicidal effects of the test compounds are assessed visually three weeks after spraying the soil and are recorded an a 0 to 100 scale. A rating 0 indicates growth as untreated control, a rating 100 indicates death. An increase of 10 unit an the linear scale approximates to a 10% increase in the level of effect. The results of the assessment are set out in Tables 1 to 4.
# Poa annua = experiment: Pre-emergence test, weed control; conditions: 3 weeks after treatment, rating 0-100 (100=death), Table 3
# Protocol: as §1, §2, §3
# Veronica persica = experiment: Pre-emergence test, weed control; conditions: 3 weeks after treatment, rating 0-100 (100=death), Table 3
# Protocol: as §1, §2, §3
# Matricaria inodora = experiment: Pre-emergence test, weed control; conditions: 3 weeks after treatment, rating 0-100 (100=death), Table 3
# Protocol: as §1, §2, §3
# Lolium perenne = experiment: Pre-emergence test, weed control; conditions: 3 weeks after treatment, rating 0-100 (100=death), Table 3
# Protocol: as §1, §2, §3
# Lamium purpureum = experiment: Pre-emergence test, weed control; conditions: 3 weeks after treatment, rating 0-100 (100=death), Table 3
# Protocol: as §1, §2, §3
# Apera spica-venti = experiment: Pre-emergence test, weed control; conditions: 3 weeks after treatment, rating 0-100 (100=death), Table 3
# Protocol: as §1, §2, §3
# Setaria viridis = experiment: Pre-emergence test, weed control; conditions: 3 weeks after treatment, rating 0-100 (100=death), Table 3
# Protocol: as §1, §2, §3
# Alopecurus myosuroides = experiment: Pre-emergence test, weed control; conditions: 3 weeks after treatment, rating 0-100 (100=death), Table 3
# Protocol: as §1, §2, §3
# Stellaria media = experiment: Pre-emergence test, weed control; conditions: 3 weeks after treatment, rating 0-100 (100=death), Table 3
# Protocol: as §1, §2, §3
# [1] = test system: Triticum aestivum variety “Monopol”; experiment: Pre-emergence test, selectivity; conditions: 3 weeks after treatment, rating 0-100 (100=death), Table 4
# Protocol: as §1, §2
# as §3, with “These acetone solutions are diluted with water and the resulting formulations applied at dosage levels corresponding to 15 g, 30 g, 60 g, 120 g or 240 g of active material per hectare in a volume equivalent to 900 liters per hectare. In” for “In”
# [2] = test system: Triticum aestivum variety “Kanzler”; experiment: Pre-emergence test, selectivity; conditions: 3 weeks after treatment, rating 0-100 (100=death), Table 4
# Protocol: as §1, §2
# as §3, with “These acetone solutions are diluted with water and the resulting formulations applied at dosage levels corresponding to 15 g, 30 g, 60 g, 120 g or 240 g of active material per hectare in a volume equivalent to 900 liters per hectare. In” for “In”
# VIOAR = experiment: Pre-emergence test, weed control; conditions: 3 weeks after treatment, rating 0-100 (100=death), Table 3
# Protocol: as §1, §2
# as §3, with “These acetone solutions are diluted with water and the resulting formulations applied at dosage levels corresponding to 15 g, 30 g, 60 g, 120 g or 240 g of active material per hectare in a volume equivalent to 900 liters per hectare. In” for “In”
# PAPRH = experiment: Pre-emergence test, weed control; conditions: 3 weeks after treatment, rating 0-100 (100=death), Table 3
# Protocol: as §1, §2
# as §3, with “These acetone solutions are diluted with water and the resulting formulations applied at dosage levels corresponding to 15 g, 30 g, 60 g, 120 g or 240 g of active material per hectare in a volume equivalent to 900 liters per hectare. In” for “In”
# wheat = experiment: Pre-emergence test, tolerance in wheat; conditions: in vivo
# Protocol: as §1, §2
# as §3, with “These acetone solutions are diluted with water and the resulting formulations applied at dosage levels corresponding to 15 g, 30 g, 60 g, 120 g or 240 g of active material per hectare in a volume equivalent to 900 liters per hectare. In” for “In”
smiles,measurement,setting,value
Cc1cnc(-c2ccc(C(F)(F)F)cc2)nc1Oc1ccnc(Cl)c1 [REF-4],GALAP weed control rating,Galium aparine; 0.240 kg/ha,90
same,POAAN weed control rating,Poa annua; 0.030 kg/ha,100
same,POAAN weed control rating,Poa annua; 0.060 kg/ha,100
same,POAAN weed control rating,Poa annua; 0.120 kg/ha,100
same,POAAN weed control rating,Poa annua; 0.240 kg/ha,100
same,VERPE weed control rating,Veronica persica; 0.030 kg/ha,98
same,VERPE weed control rating,Veronica persica; 0.060 kg/ha,100
same,VERPE weed control rating,Veronica persica; 0.120 kg/ha,100
same,VERPE weed control rating,Veronica persica; 0.240 kg/ha,100
same,MATIN weed control rating,Matricaria inodora; 0.030 kg/ha,100
same,MATIN weed control rating,Matricaria inodora; 0.060 kg/ha,100
same,MATIN weed control rating,Matricaria inodora; 0.120 kg/ha,100
same,MATIN weed control rating,Matricaria inodora; 0.240 kg/ha,100
same,LOLPE weed control rating,Lolium perenne; 0.030 kg/ha,98
same,LOLPE weed control rating,Lolium perenne; 0.060 kg/ha,98
same,LOLPE weed control rating,Lolium perenne; 0.120 kg/ha,100
same,LOLPE weed control rating,Lolium perenne; 0.240 kg/ha,100
same,LAMPU weed control rating,Lamium purpureum; 0.030 kg/ha,97
same,LAMPU weed control rating,Lamium purpureum; 0.060 kg/ha,100
same,LAMPU weed control rating,Lamium purpureum; 0.120 kg/ha,100
same,LAMPU weed control rating,Lamium purpureum; 0.240 kg/ha,100
same,APESV weed control rating,Apera spica-venti; 0.030 kg/ha,100
same,APESV weed control rating,Apera spica-venti; 0.060 kg/ha,100
same,APESV weed control rating,Apera spica-venti; 0.120 kg/ha,100
same,APESV weed control rating,Apera spica-venti; 0.240 kg/ha,100
same,SETVI weed control rating,Setaria viridis; 0.030 kg/ha,65
same,SETVI weed control rating,Setaria viridis; 0.060 kg/ha,80
same,SETVI weed control rating,Setaria viridis; 0.120 kg/ha,100
same,SETVI weed control rating,Setaria viridis; 0.240 kg/ha,100
same,ALOMY weed control rating,Alopecurus myosuroides; 0.030 kg/ha,20
same,ALOMY weed control rating,Alopecurus myosuroides; 0.060 kg/ha,92
same,ALOMY weed control rating,Alopecurus myosuroides; 0.120 kg/ha,93
same,ALOMY weed control rating,Alopecurus myosuroides; 0.240 kg/ha,98
same,STEME weed control rating,Stellaria media; 0.030 kg/ha,92
same,STEME weed control rating,Stellaria media; 0.060 kg/ha,100
same,STEME weed control rating,Stellaria media; 0.120 kg/ha,100
same,STEME weed control rating,Stellaria media; 0.240 kg/ha,100
same,TRZAWM rating (Selectivity),[1]; 0.030 kg/ha,15
same,TRZAWM rating (Selectivity),[1]; 0.060 kg/ha,8
same,TRZAWM rating (Selectivity),[1]; 0.120 kg/ha,22
same,TRZAWM rating (Selectivity),[1]; 0.240 kg/ha,35
same,TRZAWK rating (Selectivity),[2]; 0.030 kg/ha,10
same,TRZAWK rating (Selectivity),[2]; 0.060 kg/ha,15
same,TRZAWK rating (Selectivity),[2]; 0.120 kg/ha,22
same,TRZAWK rating (Selectivity),[2]; 0.240 kg/ha,22
same,VIOAR weed control rating,VIOAR; 0.030 kg/ha,99
same,VIOAR weed control rating,VIOAR; 0.060 kg/ha,100
same,VIOAR weed control rating,VIOAR; 0.120 kg/ha,100
same,VIOAR weed control rating,VIOAR; 0.240 kg/ha,100
same,PAPRH weed control rating,PAPRH; 0.030 kg/ha,100
same,PAPRH weed control rating,PAPRH; 0.060 kg/ha,100
same,PAPRH weed control rating,PAPRH; 0.120 kg/ha,100
same,PAPRH weed control rating,PAPRH; 0.240 kg/ha,100
same,maximum tolerated dose in wheat / dose at which sufficiently selective in wheat,wheat,60 g/ha
Cc1nc(-c2ccc(C(F)(F)F)cc2)nc(Oc2ccnc(Cl)c2)c1C [REF-5],GALAP weed control rating,Galium aparine; 0.030 kg/ha,2
same,GALAP weed control rating,Galium aparine; 0.060 kg/ha,5
same,GALAP weed control rating,Galium aparine; 0.120 kg/ha,50
same,POAAN weed control rating,Poa annua; 0.030 kg/ha,92
same,POAAN weed control rating,Poa annua; 0.060 kg/ha,100
same,POAAN weed control rating,Poa annua; 0.120 kg/ha,100
same,POAAN weed control rating,Poa annua; 0.240 kg/ha,100
same,VERPE weed control rating,Veronica persica; 0.030 kg/ha,55
same,VERPE weed control rating,Veronica persica; 0.060 kg/ha,93
same,VERPE weed control rating,Veronica persica; 0.120 kg/ha,95
same,VERPE weed control rating,Veronica persica; 0.240 kg/ha,100
same,MATIN weed control rating,Matricaria inodora; 0.030 kg/ha,85
same,MATIN weed control rating,Matricaria inodora; 0.060 kg/ha,100
same,MATIN weed control rating,Matricaria inodora; 0.120 kg/ha,100
same,MATIN weed control rating,Matricaria inodora; 0.240 kg/ha,100
same,LOLPE weed control rating,Lolium perenne; 0.030 kg/ha,40
same,LOLPE weed control rating,Lolium perenne; 0.060 kg/ha,90
same,LOLPE weed control rating,Lolium perenne; 0.120 kg/ha,98
same,LOLPE weed control rating,Lolium perenne; 0.240 kg/ha,99
same,LAMPU weed control rating,Lamium purpureum; 0.030 kg/ha,0
same,LAMPU weed control rating,Lamium purpureum; 0.060 kg/ha,20
same,LAMPU weed control rating,Lamium purpureum; 0.120 kg/ha,55
same,LAMPU weed control rating,Lamium purpureum; 0.240 kg/ha,100
same,APESV weed control rating,Apera spica-venti; 0.030 kg/ha,100
same,APESV weed control rating,Apera spica-venti; 0.060 kg/ha,100
same,APESV weed control rating,Apera spica-venti; 0.120 kg/ha,100
same,APESV weed control rating,Apera spica-venti; 0.240 kg/ha,100
same,SETVI weed control rating,Setaria viridis; 0.030 kg/ha,20
same,SETVI weed control rating,Setaria viridis; 0.060 kg/ha,50
same,SETVI weed control rating,Setaria viridis; 0.120 kg/ha,95
same,SETVI weed control rating,Setaria viridis; 0.240 kg/ha,100
same,ALOMY weed control rating,Alopecurus myosuroides; 0.030 kg/ha,5
same,ALOMY weed control rating,Alopecurus myosuroides; 0.060 kg/ha,15
same,ALOMY weed control rating,Alopecurus myosuroides; 0.120 kg/ha,30
same,ALOMY weed control rating,Alopecurus myosuroides; 0.240 kg/ha,35
same,STEME weed control rating,Stellaria media; 0.030 kg/ha,10
same,STEME weed control rating,Stellaria media; 0.060 kg/ha,25
same,STEME weed control rating,Stellaria media; 0.120 kg/ha,35
same,STEME weed control rating,Stellaria media; 0.240 kg/ha,70
same,TRZAWM rating (Selectivity),[1]; 0.120 kg/ha,1
same,TRZAWM rating (Selectivity),[1]; 0.240 kg/ha,8
same,TRZAWK rating (Selectivity),[2]; 0.120 kg/ha,1
same,TRZAWK rating (Selectivity),[2]; 0.240 kg/ha,8
same,VIOAR weed control rating,VIOAR; 0.030 kg/ha,96
same,VIOAR weed control rating,VIOAR; 0.060 kg/ha,97
same,VIOAR weed control rating,VIOAR; 0.120 kg/ha,98
same,VIOAR weed control rating,VIOAR; 0.240 kg/ha,99
same,PAPRH weed control rating,PAPRH; 0.030 kg/ha,85
same,PAPRH weed control rating,PAPRH; 0.060 kg/ha,95
same,PAPRH weed control rating,PAPRH; 0.120 kg/ha,100
same,PAPRH weed control rating,PAPRH; 0.240 kg/ha,100
same,maximum tolerated dose in wheat / dose at which sufficiently selective in wheat,wheat,240 g/ha

# — US7008905B2, “Method of combating undesired plant growth on cereals” (BASF Aktiengesellschaft, priority 2000, dated 2006)
